# Read-outs that look alike come from different tables or passages of the source.
# What was measured:
# [1] = target: ALK (Homo sapiens, UniProt Q9UM73); test: ALK kinase IC50 test (HTRF); type: biochemical; details: Table 2
# Text: According to HTRF method, the peptide substrate was labeled with a biotin, which can specifically bind to XL665-labeled streptavidin. When the kinase adds a phosphate group to the polypeptide substrate in the first step, its Eu-labeled specific phosphorylation antibody can recognize and bind to it. In this way, in the second step of detection, a complex of XL665-labeled streptavidin, phosphorylated peptide substrate and Eu-labeled phosphorylation antibody can be formed. Since the distance between XL665 and Eu is short, FRET can be formed. On the other hand, Eu has a relatively long fluorescence half-life and can be applied to time-resolved fluorescence detection.
# 10 μL of reaction system, 4 μL test compound, 2 μL kinase, 2 μL biotin-labeled substrate and 2 μL ATP, was added into a 384-well plate, shaken for 30 s, and incubated at room temperature for 1 hour. 5 μL of Eu-labeled phosphorylation site-specific antibody and 5 μL of XL665-labeled streptavidin were added. The reaction system was shaken for 30 s, and incubated at room temperature for 1 hour. A microplate reader was used to detect the fluorescence signal. The inhibition rates of the compounds under 8 concentration gradients were determined, and the IC50 value of each compound was calculated by fitting curve with Origin 8.0. […] Each experiment was performed in triplicate.
# (§1) NOTE: HEL, SET-2, H3122 cells were purchased from ATCC (American type culture collection), Z′-LYTETM kinase assay platform was purchased from Invitrogen, HTRF KinEASETM-TK was purchased from Cisbio, and Cell Counting Kit-8 was purchased from Beyotime.
# [2] = test system: SET 2 (JAK2 V617F) cells; test: CCK-8 cell proliferation detection, SET2 cells; type: cell-based; details: Homo sapiens, SET-2; Table 2; CCK-8, 72 hrs
# Text: (§2) WST-8 (chemical name: 2-(2-methoxy-4-nitrophenyl)-3-(4-nitrophenyl)-5-(2,4-disulfo benzene)-2H-tetrazolium monosodium), which is reduced to a highly water-soluble yellow formazan product (Formazan dye) by the dehydrogenase in cells under the action of the electron carrier dimethyl 1-methoxy-5-methylphenazinium sulfate (1-Methoxy PMS). The amount of the produced formazan is proportional to the number of living cells. Therefore, the survival rate of cells can be calculated indirectly by measuring the absorbance at 450 nm. The half inhibition rate of the compound on the proliferation of H3122, SET2, HEL cells can be determined by the CCK-8 method.
# (§3) RPIM medium containing 10% FBS was used to culture cells (100 μL per well), and 3500 cells were inoculated into a 96-well plate, and placed in a 37° C., 5% CO2 incubator for 24 h, until 50%-70% of the cell confluence was achieved. Drugs with different concentration gradients were added respectively, and incubated for another 72 hrs. […] And finally the absorption value of each well was measured at 450 nm.
# as §1
# [3] = test system: H3122 cells; test: CCK-8 cell proliferation detection, H3122 cells; type: cell-based; details: Homo sapiens, NCI-H3122; Table 2; CCK-8, 72 hrs
# Text: as §2, §3, §1
# [4] = test system: HEL (JAK2 V617F) cells; test: CCK-8 cell proliferation detection, HEL cells; type: cell-based; details: Homo sapiens, Table 2, CCK-8, 72 hrs
# Text: as §2, §3, §1
# [5] = target: JAK2 (Homo sapiens, UniProt O60674); test: JAK2 kinase activity test at molecular level (Z'-LYTE FRET); type: biochemical
# Description: JAK2 can catalyze the transfer of a phosphate group of adenosine triphosphate (ATP) to a polypeptide substrate, and the polypeptide substrate is labeled with two fluorescent groups, coumarin and fluorescein. […] Therefore, the inhibition rates of different compounds can be calculated by measuring the ratio of enzyme-catalyzed substrate phosphorylation percentages.
# 10 μL reaction system, 2.5 μL test compound, 5 μL kinase/peptide substrate mixture and 2.5 μL ATP solution were added into a 384-well plate, shaken for 30 s, and incubated at room temperature for 1 hour. 5 μL of proteolytic enzyme and 15 μL of the reaction system were added and shaken for 30 s and incubated at room temperature for 1 h. 5 μL of stop reagent was added, and the reaction system with a total volume of 20 μL was shaken for 30 seconds. A microplate reader was used to detect the fluorescence signal. […] The inhibition rates of the compound at 7 concentration gradients were determined, and the IC50 value for each compound was calculated by fitting curve with Origin 8.0.
# as §1
# [6] = Table 1, read-out: JAK2 kinase activity IC50
# Chain of JAK2 (O60674 whole entry): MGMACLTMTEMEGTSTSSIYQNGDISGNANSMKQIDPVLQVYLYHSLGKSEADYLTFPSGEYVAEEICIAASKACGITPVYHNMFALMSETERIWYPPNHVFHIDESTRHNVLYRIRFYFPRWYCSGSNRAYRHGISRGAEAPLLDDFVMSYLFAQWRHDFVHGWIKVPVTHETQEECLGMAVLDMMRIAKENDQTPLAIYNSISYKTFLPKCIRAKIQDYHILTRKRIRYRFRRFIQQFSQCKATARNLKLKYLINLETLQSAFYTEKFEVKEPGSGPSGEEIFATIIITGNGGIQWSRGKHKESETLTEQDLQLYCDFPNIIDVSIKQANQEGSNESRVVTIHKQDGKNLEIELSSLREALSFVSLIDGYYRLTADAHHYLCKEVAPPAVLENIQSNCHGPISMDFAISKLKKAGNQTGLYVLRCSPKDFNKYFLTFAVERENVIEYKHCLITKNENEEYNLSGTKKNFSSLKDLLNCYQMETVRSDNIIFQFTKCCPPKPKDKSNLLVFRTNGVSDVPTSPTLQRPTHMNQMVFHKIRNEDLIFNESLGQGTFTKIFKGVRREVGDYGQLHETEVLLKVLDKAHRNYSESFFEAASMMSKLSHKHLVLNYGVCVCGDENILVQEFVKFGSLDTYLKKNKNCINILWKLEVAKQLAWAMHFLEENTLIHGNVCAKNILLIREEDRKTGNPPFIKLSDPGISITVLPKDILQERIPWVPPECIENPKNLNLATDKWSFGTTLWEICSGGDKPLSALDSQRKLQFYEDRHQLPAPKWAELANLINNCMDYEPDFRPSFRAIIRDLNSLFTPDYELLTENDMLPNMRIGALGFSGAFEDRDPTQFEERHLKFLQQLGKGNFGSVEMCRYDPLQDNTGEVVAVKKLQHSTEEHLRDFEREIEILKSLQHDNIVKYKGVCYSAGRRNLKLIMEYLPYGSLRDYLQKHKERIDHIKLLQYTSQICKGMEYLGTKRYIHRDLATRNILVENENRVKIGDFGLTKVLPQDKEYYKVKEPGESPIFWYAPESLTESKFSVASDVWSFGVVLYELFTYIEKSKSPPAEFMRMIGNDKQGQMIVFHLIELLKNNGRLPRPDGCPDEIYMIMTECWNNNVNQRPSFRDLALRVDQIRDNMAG
# Chain of ALK (Q9UM73 19-1620, species assumed): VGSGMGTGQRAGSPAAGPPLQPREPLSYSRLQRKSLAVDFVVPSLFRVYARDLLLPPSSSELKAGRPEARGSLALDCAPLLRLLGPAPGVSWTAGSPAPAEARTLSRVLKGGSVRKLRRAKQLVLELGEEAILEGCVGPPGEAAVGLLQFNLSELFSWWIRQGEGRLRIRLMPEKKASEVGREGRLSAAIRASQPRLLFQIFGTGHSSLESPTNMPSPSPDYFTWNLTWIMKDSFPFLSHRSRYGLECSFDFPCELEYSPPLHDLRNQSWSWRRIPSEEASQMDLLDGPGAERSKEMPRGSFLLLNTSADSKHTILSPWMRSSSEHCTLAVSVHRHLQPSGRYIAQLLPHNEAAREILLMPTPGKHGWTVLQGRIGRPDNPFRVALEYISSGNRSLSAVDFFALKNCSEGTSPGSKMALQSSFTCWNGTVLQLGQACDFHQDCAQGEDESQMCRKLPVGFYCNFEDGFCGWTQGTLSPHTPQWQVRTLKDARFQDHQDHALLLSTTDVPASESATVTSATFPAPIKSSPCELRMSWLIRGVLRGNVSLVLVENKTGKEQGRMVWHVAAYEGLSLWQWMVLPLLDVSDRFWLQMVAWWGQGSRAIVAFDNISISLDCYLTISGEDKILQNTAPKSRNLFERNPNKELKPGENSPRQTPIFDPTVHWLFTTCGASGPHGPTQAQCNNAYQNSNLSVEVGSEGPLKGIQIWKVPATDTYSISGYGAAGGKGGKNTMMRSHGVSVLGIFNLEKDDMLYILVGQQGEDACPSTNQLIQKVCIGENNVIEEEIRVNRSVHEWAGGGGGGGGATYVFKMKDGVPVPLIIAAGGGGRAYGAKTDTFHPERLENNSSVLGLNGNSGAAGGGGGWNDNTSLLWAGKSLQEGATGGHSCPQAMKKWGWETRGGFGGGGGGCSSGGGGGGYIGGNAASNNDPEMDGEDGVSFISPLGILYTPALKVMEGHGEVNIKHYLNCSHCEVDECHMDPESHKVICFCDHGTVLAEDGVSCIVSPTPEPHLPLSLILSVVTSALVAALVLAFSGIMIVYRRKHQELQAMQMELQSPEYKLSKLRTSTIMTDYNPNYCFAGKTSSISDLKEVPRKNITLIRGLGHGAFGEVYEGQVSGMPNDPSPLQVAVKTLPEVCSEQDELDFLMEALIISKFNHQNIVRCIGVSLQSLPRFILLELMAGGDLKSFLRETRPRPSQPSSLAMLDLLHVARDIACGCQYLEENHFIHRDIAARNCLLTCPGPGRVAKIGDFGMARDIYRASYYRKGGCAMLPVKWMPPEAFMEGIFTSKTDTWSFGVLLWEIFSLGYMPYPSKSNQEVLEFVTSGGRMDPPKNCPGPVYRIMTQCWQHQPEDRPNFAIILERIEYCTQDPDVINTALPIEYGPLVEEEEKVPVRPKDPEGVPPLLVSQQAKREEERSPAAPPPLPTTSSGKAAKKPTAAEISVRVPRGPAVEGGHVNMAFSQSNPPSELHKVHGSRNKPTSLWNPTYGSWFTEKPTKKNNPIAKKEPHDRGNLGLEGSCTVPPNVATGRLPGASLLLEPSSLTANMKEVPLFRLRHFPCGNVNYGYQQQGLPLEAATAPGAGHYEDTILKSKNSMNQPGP
IC50 [1],IC50 [3],melting point,"IC50 [5, 6]","IC50 ([5]; Table 2, read-out: JAK2 IC50)",Compound,IC50 [2],IC50 [4]
2.44 µM,1.54 ± 0.034 µM,189.7 to 190.6 °C,0.119 ± 0.0082 µM,,"C[C@@H](Oc1cc(-c2cncc(N3CCNCC3)c2)cnc1N)c1c(Cl)ccc(F)c1Cl [WWQ-1093-23, (R)-5-[1-(2,6-dichloro-3-fluorophenyl)ethoxy]-5′-piperazine-[3,3′-dipyridine]-6-amine]",2.89 µM,10.4 µM
0.545 µM,> 10 µM,189.8 to 191 °C,0.048 ± 0.008 µM,0.048 ± 0.008 µM,CC(Oc1cc(-c2ccc(C3CCNCC3)cc2)cnc1N)c1cc(F)ccc1Cl (centres unmarked) [WWQ-1093-87],9.7 µM,35.4 µM
3.44 µM,1.17 ± 0.093 µM,197.8 to 198.5 °C,0.804 ± 0.009 µM,,"C[C@@H](Oc1cc(-c2ccc(N3CCNCC3)nc2)cnc1N)c1c(Cl)ccc(F)c1Cl [WWQ-191, (R)-5-[1-(2,6-dichloro-3-fluorophenyl)ethoxy]-6′-piperazin-[3,3′-dipyridine]-6-amine]",3.22 µM,30.1 µM
0.498 µM,1.14 ± 0.012 µM,191.1 to 193.7 °C,0.037 ± 0.003 µM,0.037 ± 0.003 µM,CC(Oc1cc(-c2ccc(N3CCNCC3)cc2)cnc1N)c1cc(F)ccc1Cl (centres unmarked) [WWQ-1093-85],8.26 µM,35.8 µM
3.45 µM,4.366 ± 0.005 µM,191.5 to 191.7 °C,0.126 ± 0.0053 µM,,"C[C@@H](Nc1cc(-c2cnn(C3CCNCC3)c2)cnc1N)c1c(Cl)ccc(F)c1Cl [WWQ-1093-73, 4-{3-[1-(2,6-dichloro-3-fluorophenyl)ethylamino]-2-aminopyridine}pyrazole-1-piperidine]",2.2 µM,13.4 µM
1.25 µM,0.956 µM,192.1 to 193.4 °C,0.035 ± 0.001 µM,0.035 ± 0.001 µM,CC(Oc1cc(-c2cccc(C3CCNCC3)c2)cnc1N)c1cc(F)ccc1Cl (centres unmarked) [WWQ-1093-91],2.36 µM,8.77 µM
1.33 µM,< 0.5 µM,191.6 to 192.3 °C,0.003 ± 0.0001 µM,0.003 ± 0.0001 µM,COc1ccc(F)cc1C(C)Oc1cc(-c2cnn(C3CCNCC3)c2)cnc1N (centres unmarked) [WWQ-1093-71],0.616 µM,9.97 µM
5.43 µM,3.52 ± 0.102 µM,194.2 to 195 °C,0.215 ± 0.0124 µM,,"C[C@@H](Oc1cc(-c2cnn(C3CCNCC3)c2)cnc1N)c1ccccc1 [WWQ-1093-25, 4-[3-(1-phenylpropoxy)-2-aminopyridine]pyrazole-1-piperidine]",4.61 µM,13.7 µM
> 10 µM,6.06 ± 0.081 µM,160.4 to 161.4 °C,,> 10 µM,CC(Oc1cc(-c2ccccc2)cnc1N)c1c(Cl)ccc(F)c1Cl (centres unmarked) [WWQ-1093-83],11.6 µM,11.3 µM
> 10 µM,14.4 ± 4.21 µM,199 to 199.8 °C,0.461 ± 0.002 µM,0.461 ± 0.002 µM,"CC(Oc1cc(-c2ccccc2)cnc1N)c1cc(F)ccc1Cl (centres unmarked) [WWQ-1093-75, 3-(1-(2-chloro-5-fluorophenyl)ethoxy)-2-amino-5-phenylpyridine]",33.2 µM,24.5 µM
> 10 µM,20.7 ± 0.394 µM,192.2 to 193.4 °C,3.4 ± 0.431 µM,3.4 ± 0.431 µM,"CC(Oc1cc(-c2cnn(C3CCNCC3)c2)cnc1N)C1CCCCC1 (centres unmarked) [WWQ-197, 4-{3-[1-cyclohexaneethoxy]-2-aminopyridine}pyrazol-1-piperidine]",7.02 µM,12.9 µM
0.334 µM,2.55 ± 0.16 µM,183.8 to 184.6 °C,0.016 ± 0.0001 µM,0.016 ± 0.0001 µM,"CC(Oc1cc(-c2cn[nH]c2)cnc1N)c1cc(F)ccc1Cl (centres unmarked) [WWQ-1093-81, 3-(1-(2-chloro-5-fluorophenyl)ethoxy)-2-amino-5-pyrazolepyridine]",5.55 µM,4.7 µM
0.423 µM,4.83 ± 0.082 µM,189.8 to 191.3 °C,0.0265 ± 0.0265 µM,,"COc1ccc(F)c(Cl)c1C(C)Oc1cc(-c2cnn(C3CCNCC3)c2)cnc1N (centres unmarked) [WWQ-175, 4-{3-[1-(2-chloro-3-fluoro-6-methoxyphenyl)ethoxy]-2-aminopyridine}pyrazol-1-piperidine]",0.916 µM,11.3 µM
> 10 µM,6.32 ± 0.128 µM,158.8 to 159.8 °C,3.05 ± 0.204 µM,,"C[C@@H](Oc1cc(-c2cccnc2)cnc1N)c1c(Cl)ccc(F)c1Cl [WWQ-189, (R)-5-[1-(2,6-dichloro-3-fluorophenyl)ethoxy]-[3,3′-dipyridine]-6-amine]",11.1 µM,13.2 µM
0.334 µM,< 0.5 µM,190.8 to 191.6 °C,0.027 ± 0.002 µM,0.027 ± 0.002 µM,CC(Oc1cc(-c2cccc(N3CCNCC3)c2)cnc1N)c1cc(F)ccc1Cl (centres unmarked) [WWQ-1093-89],2.26 µM,8.43 µM
> 10 µM,> 100 µM,,,2.68 ± 0.05 µM,Cc1cc(Nc2cnc(N)c(OC(C)c3cc(F)ccc3Cl)c2)nn1C (centres unmarked) [MXY-191],> 50 µM,23.1 µM
0.855 µM,7.18 ± 0.838 µM,188.1 to 190.4 °C,0.0647 ± 0.0004 µM,,C[C@@H](Oc1cc(-c2cnn(C3CCOCC3)c2)cnc1N)c1c(Cl)ccc(F)c1Cl [WWQ-1093-27],1.68 µM,8.05 µM
5.5 µM,50.6 ± 8.01 µM,,,0.925 ± 0.102 µM,CC(Oc1cc(-c2c[nH]c3ccccc23)cnc1N)c1cc(F)ccc1Cl (centres unmarked) [MXY-137],12.5 µM,1.67 µM
1.24 µM,6.34 ± 1.91 µM,,,0.027 ± 0.001 µM,CC(Oc1cc(-c2cnn(C3CCOC3)c2)cnc1N)c1cc(F)ccc1Cl (centres unmarked) [MXY-032-53],44.1 µM,4.54 µM
